Values of other authors, collected in patent US6271232A, “Collagenase-1 and stromelysin-1 inhibitors, pharmaceutical compositions comprising same and methods of their use” (Affymax Technologies, N.V., priority 1999, dated 2001).

Molecular target: rabbit bone proteoglycanase
Details: Delaisse et al. (1985)

IC50: 500 nM
Structure (SMILES): CNC(=O)[C@H](Cc1ccc(OC)cc1)NC(=O)[C@H](CC(C)C)NC(CCNC(=O)OCc1ccccc1)C(=O)O (stereo partly drawn) [N-[3-(benzyloxy-carbonyl)amino-1-carboxy-n-propyl]-L-leucyl-O-methyl-L-tyrosine, N-methylamide]
